The text below walks through data of US9517224B2, “Methods of treating patients infected with HIV and HTLV” (THE UNITED STATES OF AMERICA, AS REPRESENTED BY THE …, priority 2012, dated 2016).

This experiment relates to PBMC's from normal volunteers. Put plainly: mRNA for IL-4, INF-gamma, TNF-alpha and CD69 in PBMCs from normal volunteers. Type of experiment: cell-based.

In the case of ionomycine, the “CD69 mRNA, relative fold difference versus untreated control” value was determined as 1.639 fold; the “IFN-γ mRNA, relative fold difference versus untreated control” value came out at 1.608 fold; the “IL-4 mRNA, relative fold difference versus untreated control” value came to 0.716 fold; the “TNF-α mRNA, relative fold difference versus untreated control” value is recorded as 0.657 fold.
